Entries after “also recorded” stand apart in the source; their conditions may differ.
Legend:
[1] = tested on: human colon cancer cells HT-29; test: MTT growth inhibition, HT-29; type: cell-based; settings: 24 hours
Description: (§1) Cell viability was determined by an MTT colorimetric assay. Briefly, human colon cancer cells HCT-116 or HT-29, were plated in 96-well microtiter plates with 3000 cells/well and allowed to attach for 24 hours at 37° C. and 5% CO2. The test compounds (in DMSO) were added to cell culture medium to desired final concentrations (final DMSO concentrations for control and treatments were 0.1%). After the cells were cultured for 24 hours, the medium was aspirated and cells were treated with 200 μL fresh medium containing 2.41 mmol/L MTT. After incubation for 3 hours at 37° C., the medium containing MTT was aspirated, 100 μL of DMSO was added to solubilize the formazan precipitate, and the plates were shaken gently for an hour at room temperature. Absorbance values were derived from the plate reading at 550 nm on a Biotek (Winooski, Vt., United States of America) microtiter plate reader. The reading reflected the number of viable cells and was expressed as a percentage of viable cells in the control. CCD-18Co cells were grown in EMEM. Both HCT-116 and HT-29 cells were cultured in McCoy's 5A medium. All of the above media were supplemented with 10% fetal bovine serum, 1% penicillin/streptomycin, and 1% glutamine, and the cells were kept in a 37° C. incubator with 95% humidity and 5% CO2.

[2] = Biotransformation in zebrafish embryos (cysteine conjugates, LC/MS); type: in vivo; settings: 5 μM in incubation medium, 8 hpf to 24 hpf
Description: Fifty zebrafish embryos at the 8 hour-post-fertilization (hpf) stage were incubated at 28.5° C. in 0.3× Danieau's solution (19.3 mM NaCl, 0.23 mM KCl, 0.13 mM MgSO4, 0.2 mM Ca(NO3)2, 1.7 mM HEPES, pH 7.0) with or without 5 μM 18 and 25-27, respectively. At 24 hpf, embryos were dechorionated manually and the chorions were carefully removed one by one from the culture medium. The zebrafish embryos were harvested and kept at −80° C. till analyzed by LC/MS.
200 μL Sodium acetate buffer solution (pH 5.0) was added to 50 zebrafish embryos. Samples were homogenized for 90 s by an Omni Bead Ruptor Homogenizer (Kennesaw, Ga., United States of America). 10 μL 10% ascorbic acid and 300 μL sodium acetate buffer were added to the homogenates. The mixture was incubated in the presence of β-glucuronidase (250 U) and sulfatase (3 U) at 37° C. for 45 min, and then 600 μL MeOH with 1% acetic acid was added. The resulting mixture was vortexed for 30 s and then centrifuged at 17000 g for 10 min. The supernatant was removed and evaporated under a gentle stream of nitrogen. The residue was reconstituted in 150 μL 90% MeOH with 0.2% acetic acid (AA), and 10 μL was analyzed directly by LC/MS.
LC/MS analysis was carried out with a Thermo-Finnigan Spectra System, which consisted of an Accela high speed MS pump, an Accela refrigerated autosampler, and an LCQ Fleet ion trap mass detector (Thermo Electron, San Jose, Calif., United States of America) incorporated with an electrospray ionization (ESI) interface. A Gemini-NX C18 column (150 mm×4.6 mm i.d., 5 μm; Phenomenex, Torrance, Calif., United States of America) was used for separation at a flow rate of 0.3 mL/min. The column was eluted with 100% A (5% aqueous methanol with 0.2% formic acid) for 1 min, followed by linear increases in B (95% aqueous methanol with 0.2% formic acid) to 55% from 1 to 4 min, to 85% from 4 to 25 min, then to 100% B from 25 to 30 min, and then with 100% B from 30 to 35 min. The column was then re-equilibrated with 100% A for 5 min. The LC eluent was introduced into the ESI interface. The positive ion polarity mode was set for the ESI source with the voltage on the ESI interface maintained at approximately 4.6 kV. Nitrogen gas was used as the sheath gas and auxiliary gas. Optimized source parameters, including capillary temperature (260° C.), sheath gas flow rate (31 arbitrary units), auxiliary gas flow rate (16 units), tube lens (34 V), and capillary voltage 9 V, were tuned using authentic samples. The collision-induced dissociation (CID) was conducted with an isolation width 2 Da and normalized collision energy of 35 for MS^2. The mass range was measured from 100 to 800 m/z. Data acquisition was performed with Xcalibur version 2.0 (Thermo Electron, San Jose, Calif., United States of America).

[3] = tested on: human colon cancer cells HCT-116; test: MTT growth inhibition, HCT-116; type: cell-based; settings: 24 hours
Description: as §1

heme oxygenase-1 (HO-1) = test: Western blotting of HO-1 expression in CCD 841 CoN cells; type: cell-based, human
Description: Human normal colonic epithelial cells (CCD 841 CoN) were grown in Eagle's Minimum Essential Medium with 10% fetal bovine serum and 1% penicillin/streptomycin, and maintained at 37° C. in a 100% humidified atmosphere of 5% CO2 and 95% air. Fresh growth medium was added to the cells every two days until confluent. Cells were planted in 145×20 mm flat-bottomed tissue culture dishes and growth to 70-80% confluence and then treated with compound 27 for various doses and time points. At the end of incubation period, cell lysates were prepared in ice-cold Cell Lysis Buffer (Cell Signaling, Danvers, Mass., United States of America) with 1% protease inhibitor cocktail and 1% phenylmethylsulfonyl fluoride (Sigma, St. Louis, Mo., United States of America). Protein concentrations were measured using BCA Protein Assay Kit (Thermo Scientific, Rockford, Ill., United States of America). […] The bound complexes were detected with SuperSignal Chemiluminescent Substract (Thermo Scientific, Rockford, Ill., United States of America). The immunoblot bands were quantified by densitometry analysis, and the ratio to β-actin was calculated and presented.

- IC50 [1]: 78.4 µM
- IC50 [3]: 34.1 µM
SMILES: CCCCCCCC(=O)/C=C/c1ccc(O)c(O)c1 [Compound 27]
- Cysteine conjugates found in zebrafish embryos [2]: four cysteine conjugates 36, 36a, 37, and 37b were found
- HO-1 expression, time dependence (heme oxygenase-1 (HO-1); 10 μM for 3, 6, 12 and 24 h, vs control (0 h)): significantly increased HO-1 expression; also recorded: increased HO-1 expression in a time-dependent manner
- HO-1 protein expression, dose dependence (heme oxygenase-1 (HO-1); 5, 10 and 20 μM for 24 h, vs untreated control): significantly increased HO-1 protein expression; also recorded: increased HO-1 expression in a dose-dependent manner

— patent US10342766B2, “6-shogaol derivatives and activities thereof” (North Carolina Agricultural and Technical State University, priority 2017, dated 2019)
